Assay results taken from the supplement of paper PMC10307832.

Tests used:
Experiment in all cases: relative viability (nuclei count vs DMSO), 5 days (fraction); higher = more cells survive
HCC-366 = test system: HCC-366
In short: (§1)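 Lung cancer cell lines were seeded in 1536-well plates and dosed by pin tool the next day, with either a single drug or a fixed anchor-drug dose combined with five library-drug doses (not always all listed) spaced in √10 steps. Five days later, one step fixed the cells and stained their nuclei (final 0.05% Triton X-100, 1% formaldehyde, 1 ug/ml Hoechst), and nuclei were counted on 4× images. Relative viability is the nuclei count in treated wells divided by the count in vehicle wells, and each value is the median of duplicate plates.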

NCI-H2023 = test system: NCI-H2023
In short: as §1

NCI-H460 = test system: NCI-H460
In short: as §1

NCI-H2342 = test system: NCI-H2342
In short: as §1

LOU-NH91 = test system: LOU-NH91
In short: as §1

CAL-12T = test system: CAL-12T
In short: as §1

LU99A = test system: LU99A
In short: as §1

NCI-H1734 = test system: NCI-H1734
In short: as §1

SK-LU-1 = test system: SK-LU-1
In short: as §1

NCI-H441 = test system: NCI-H441
In short: as §1

NCI-H838 = test system: NCI-H838
In short: as §1

BEN = test system: BEN
In short: as §1

NCI-H1975 = test system: NCI-H1975
In short: as §1

NCI-H1355 = test system: NCI-H1355
In short: as §1

NCI-H358 = test system: NCI-H358
In short: as §1

NCI-H2085 = test system: NCI-H2085
In short: as §1

NCI-H1651 = test system: NCI-H1651
In short: as §1

NCI-H1437 = test system: NCI-H1437
In short: as §1

COR-L23 = test system: COR-L23
In short: as §1

NCI-H1563 = test system: NCI-H1563
In short: as §1

NCI-H1650 = test system: NCI-H1650
In short: as §1

NCI-H1793 = test system: NCI-H1793
In short: as §1

`CC(=O)O[C@@]12CO[C@@H]1C[C@H](O)[C@@]1(C)C(=O)[C@H](O)C3=C(C)[C@@H](OC(=O)[C@H](O)[C@@H](NC(=O)OC(C)(C)C)c4ccccc4)C[C@@](O)([C@@H](OC(=O)c4ccccc4)[C@H]21)C3(C)C` [Docetaxel] + COc1cc2c(Oc3ccc(NC(=O)C4(C(=O)Nc5ccc(F)cc5)CC4)cc3F)ccnc2cc1OCCCN1CCOCC1 [Foretinib] (partner 0.25 µM) gave a relative viability (HCC-366; first compound 0.0002 µM) of 0.85, a relative viability (HCC-366; first compound 0.000632 µM) of 0.122 and a relative viability (HCC-366; first compound 0.002 µM) of 0.201. It also gave a relative viability (HCC-366; first compound 0.006325 µM) of 0.0376, a relative viability (HCC-366; first compound 0.02 µM) of 0.0329 and a relative viability (NCI-H2023; first compound 0.0002 µM) of 0.735. It also gave a relative viability (NCI-H2023; first compound 0.000632 µM) of 0.868, a relative viability (NCI-H2023; first compound 0.002 µM) of 0.111 and a relative viability (NCI-H2023; first compound 0.006325 µM) of 0.102. The relative viability (NCI-H2023; first compound 0.02 µM) was 0.0789, the relative viability (NCI-H460; first compound 0.0002 µM) was 0.952 and the relative viability (NCI-H460; first compound 0.000632 µM) was 0.933. It also gave a relative viability (NCI-H460; first compound 0.002 µM) of 0.184, a relative viability (NCI-H460; first compound 0.006325 µM) of 0.0294 and a relative viability (NCI-H460; first compound 0.02 µM) of 0.022. For the same compound, the relative viability (NCI-H2342; first compound 0.0002 µM) was 1.17, the relative viability (NCI-H2342; first compound 0.000632 µM) was 0.948 and the relative viability (NCI-H2342; first compound 0.002 µM) was 0.638. The relative viability (NCI-H2342; first compound 0.006325 µM) was 0.661, the relative viability (NCI-H2342; first compound 0.02 µM) was 0.502 and the relative viability (LOU-NH91; first compound 0.0002 µM) was 0.936. It also gave a relative viability (LOU-NH91; first compound 0.000632 µM) of 0.864, a relative viability (LOU-NH91; first compound 0.002 µM) of 0.564 and a relative viability (LOU-NH91; first compound 0.006325 µM) of 0.334. It also gave a relative viability (LOU-NH91; first compound 0.02 µM) of 0.284, a relative viability (CAL-12T; first compound 0.0002 µM) of 0.979 and a relative viability (CAL-12T; first compound 0.000632 µM) of 0.729. For the same compound, the relative viability (CAL-12T; first compound 0.002 µM) was 0.238, the relative viability (CAL-12T; first compound 0.006325 µM) was 0.216 and the relative viability (CAL-12T; first compound 0.02 µM) was 0.163. The relative viability (LU99A; first compound 0.0002 µM) was 0.718, the relative viability (LU99A; first compound 0.000632 µM) was 0.794 and the relative viability (LU99A; first compound 0.002 µM) was 0.486. For the same compound, the relative viability (LU99A; first compound 0.006325 µM) was 0.393, the relative viability (LU99A; first compound 0.02 µM) was 0.259 and the relative viability (NCI-H1734; first compound 0.0002 µM) was 0.776. The relative viability (NCI-H1734; first compound 0.000632 µM) was 0.743, the relative viability (NCI-H1734; first compound 0.002 µM) was 0.404 and the relative viability (NCI-H1734; first compound 0.006325 µM) was 0.336. The relative viability (NCI-H1734; first compound 0.02 µM) was 0.227, the relative viability (SK-LU-1; first compound 0.0002 µM) was 0.737 and the relative viability (SK-LU-1; first compound 0.000632 µM) was 0.459. The relative viability (SK-LU-1; first compound 0.002 µM) was 0.451, the relative viability (SK-LU-1; first compound 0.006325 µM) was 0.275 and the relative viability (SK-LU-1; first compound 0.02 µM) was 0.196. It also gave a relative viability (NCI-H441; first compound 0.0002 µM) of 1.12, a relative viability (NCI-H441; first compound 0.000632 µM) of 0.725 and a relative viability (NCI-H441; first compound 0.002 µM) of 0.538. The relative viability (NCI-H441; first compound 0.006325 µM) was 0.87, the relative viability (NCI-H838; first compound 0.0002 µM) was 0.98 and the relative viability (NCI-H838; first compound 0.000632 µM) was 1.03. The relative viability (NCI-H838; first compound 0.002 µM) was 0.262, the relative viability (NCI-H838; first compound 0.006325 µM) was 0.283 and the relative viability (NCI-H838; first compound 0.02 µM) was 0.162. It also gave a relative viability (BEN; first compound 0.0002 µM) of 0.625, a relative viability (BEN; first compound 0.000632 µM) of 0.926 and a relative viability (BEN; first compound 0.002 µM) of 0.606. The relative viability (BEN; first compound 0.006325 µM) was 0.285, the relative viability (BEN; first compound 0.02 µM) was 0.197 and the relative viability (NCI-H1975; first compound 0.0002 µM) was 0.907. It also gave a relative viability (NCI-H1975; first compound 0.000632 µM) of 0.586, a relative viability (NCI-H1975; first compound 0.002 µM) of 0.353 and a relative viability (NCI-H1975; first compound 0.02 µM) of 0.105. For the same compound, the relative viability (NCI-H1355; first compound 0.0002 µM) was 0.958, the relative viability (NCI-H1355; first compound 0.000632 µM) was 0.886 and the relative viability (NCI-H1355; first compound 0.002 µM) was 0.625. It also gave a relative viability (NCI-H1355; first compound 0.006325 µM) of 0.276, a relative viability (NCI-H1355; first compound 0.02 µM) of 0.243 and a relative viability (NCI-H358; first compound 0.0002 µM) of 0.66. It also gave a relative viability (NCI-H358; first compound 0.000632 µM) of 0.217, a relative viability (NCI-H358; first compound 0.006325 µM) of 0.122 and a relative viability (NCI-H358; first compound 0.02 µM) of 0.0708. The relative viability (NCI-H2085; first compound 0.0002 µM) was 0.852, the relative viability (NCI-H2085; first compound 0.000632 µM) was 0.965 and the relative viability (NCI-H2085; first compound 0.002 µM) was 0.568. It also gave a relative viability (NCI-H2085; first compound 0.006325 µM) of 0.34, a relative viability (NCI-H2085; first compound 0.02 µM) of 0.414 and a relative viability (NCI-H1651; first compound 0.0002 µM) of 0.795. It also gave a relative viability (NCI-H1651; first compound 0.000632 µM) of 0.789, a relative viability (NCI-H1651; first compound 0.002 µM) of 0.238 and a relative viability (NCI-H1651; first compound 0.006325 µM) of 0.128. For the same compound, the relative viability (NCI-H1651; first compound 0.02 µM) was 0.107, the relative viability (NCI-H1437; first compound 0.0002 µM) was 1.12 and the relative viability (NCI-H1437; first compound 0.000632 µM) was 1.21. The relative viability (NCI-H1437; first compound 0.002 µM) was 0.351, the relative viability (NCI-H1437; first compound 0.006325 µM) was 0.273 and the relative viability (NCI-H1437; first compound 0.02 µM) was 0.188. For the same compound, the relative viability (COR-L23; first compound 0.0002 µM) was 0.891, the relative viability (COR-L23; first compound 0.000632 µM) was 0.896 and the relative viability (COR-L23; first compound 0.002 µM) was 0.561. The relative viability (COR-L23; first compound 0.006325 µM) was 0.173, the relative viability (COR-L23; first compound 0.02 µM) was 0.116 and the relative viability (NCI-H1563; first compound 0.0002 µM) was 0.988. For the same compound, the relative viability (NCI-H1563; first compound 0.000632 µM) was 0.862, the relative viability (NCI-H1563; first compound 0.002 µM) was 0.966 and the relative viability (NCI-H1563; first compound 0.006325 µM) was 0.922. The relative viability (NCI-H1563; first compound 0.02 µM) was 0.628, the relative viability (NCI-H1650; first compound 0.0002 µM) was 1.07 and the relative viability (NCI-H1650; first compound 0.000632 µM) was 0.598. For the same compound, the relative viability (NCI-H1650; first compound 0.006325 µM) was 0.213, the relative viability (NCI-H1650; first compound 0.02 µM) was 0.204 and the relative viability (NCI-H1793; first compound 0.0002 µM) was 0.592. The relative viability (NCI-H1793; first compound 0.000632 µM) was 0.493, the relative viability (NCI-H1793; first compound 0.002 µM) was 0.391 and the relative viability (NCI-H1793; first compound 0.006325 µM) was 0.204. For the same compound, the relative viability (NCI-H1793; first compound 0.02 µM) was 0.186.
